Results as given in patent publication US12704459B2, “Methods, compositions, and kits for assay signal amplification” (MESO SCALE TECHNOLOGIES, LLC., priority 2021, dated 2026).

Key:
[1] = system: anti-SULFO-TAG antibody clones; experiment: Competition assay: ligands SM, Bpy or A against TAG compound binding; parameters: species or system mouse; settings: 2 μM of ligand
Experimental: FIGS. 20A-20I show the results of exemplary competitive binding assays between the TAG compounds shown in FIG. 18A and the SM, Bpy, or A ligands shown in FIG. 18A, with the anti-SULFO-TAG antibody clones described in Example 4. The graphs show the remaining ECL signal after anti-SULFO-TAG antibodies were exposed to 2 μM of each ligand, then varying concentrations of each of the TAG compounds. Lower ECL signal is indicative of stronger binding affinity to a particular ligand. The three panels in the right-most column show ECL signals from exposing the anti-SULFO-TAG antibody clones to 10 nM of the TAG compounds alone (without ligands).
To further verify the role of ligands in antibody recognition, the antibodies were coated on MSD® 96-well Small Spot Streptavidin plates and first exposed to 2 μM of ligands SM, Bpy, or A, then exposed to different concentrations of the TAG compounds as a competition assay.

[2] = ECL generation of free TAG compounds spiked into ECL read buffer; type: physicochemical; settings: free TAG compound in ECL read buffer, 96-well bare carbon plates
Experimental: An epitope recognition study was performed on the eleven anti-SULFO-TAG antibody clones described in Example 4. To study the epitope recognition of these antibody clones, four organometallic Ru^2+ compounds (“TAG compounds”) with varying numbers of sulfomethyl-bipyridine (“SM”) or bipyridine (“Bpy”) ligands as shown in FIG. 18A were prepared. The SULFO-TAG is denoted as Ru^+2(SM)2A1, which includes an acid ligand (“A”) in one of the Bpy groups and is more similar in structure with Bpy than SM. ECL generation from each TAG compound was verified by spiking the TAG compounds into ECL read buffer, and the ECL signal from each free TAG compound was measured on 96-well bare carbon plates. […] The Ru(Bpy)3 ECL signal, when normalized for concentration, would be 248,576 ECL units, similar to the other TAG compounds.

Row | Molecule | ligand binding / competition with antibody binding to Ru^+2(SM)3 and SULFO-TAG [1] | ECL signal, normalized for concentration [2]
1 | c1ccc(-c2ccccn2)nc1 [Bpy, bipyridine] | unable to significantly outcompete antibody binding | –
2 | [Ru+2].c1ccc(-c2ccccn2)nc1.c1ccc(-c2ccccn2)nc1.c1ccc(-c2ccccn2)nc1 [Ru(Bpy)3] | – | 248,576 ECL units
3 | sulfomethyl-bipyridine [SM] | strongest binding | –
